For one experiment, the target named is T1, Aurora kinase A (Homo sapiens, UniProt O14965).
T1 sequence (O14965 whole entry): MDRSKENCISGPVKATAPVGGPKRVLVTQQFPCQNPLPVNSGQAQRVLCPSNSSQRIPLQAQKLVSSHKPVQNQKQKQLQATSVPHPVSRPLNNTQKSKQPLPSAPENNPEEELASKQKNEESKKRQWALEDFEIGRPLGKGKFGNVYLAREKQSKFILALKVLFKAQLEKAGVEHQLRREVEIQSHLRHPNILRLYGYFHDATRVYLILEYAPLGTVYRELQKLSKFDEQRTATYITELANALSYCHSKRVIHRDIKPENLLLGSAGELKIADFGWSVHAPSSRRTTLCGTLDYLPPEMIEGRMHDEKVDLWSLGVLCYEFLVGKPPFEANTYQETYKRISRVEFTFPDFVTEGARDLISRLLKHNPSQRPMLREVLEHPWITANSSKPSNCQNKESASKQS

Experiment [1] has as its target Tyrosine-protein kinase JAK2 (Homo sapiens, UniProt O60674). The experiment in a line: Enzyme Assay.
Experimental: JAK2: The 2×JAK2/Tyr 06 (ThermoFisher Scientific proprietary) mixture was prepared in 50 mM HEPES pH 7.5, 0.01% BRIJ-35, 10 mM MgCl2, 1 mM EGTA.
Another experiment deals with Aurora kinase B (Homo sapiens, UniProt Q96GD4). Kind of experiment: Enzyme Assay.
Chain of Aurora kinase B (Q96GD4 whole entry): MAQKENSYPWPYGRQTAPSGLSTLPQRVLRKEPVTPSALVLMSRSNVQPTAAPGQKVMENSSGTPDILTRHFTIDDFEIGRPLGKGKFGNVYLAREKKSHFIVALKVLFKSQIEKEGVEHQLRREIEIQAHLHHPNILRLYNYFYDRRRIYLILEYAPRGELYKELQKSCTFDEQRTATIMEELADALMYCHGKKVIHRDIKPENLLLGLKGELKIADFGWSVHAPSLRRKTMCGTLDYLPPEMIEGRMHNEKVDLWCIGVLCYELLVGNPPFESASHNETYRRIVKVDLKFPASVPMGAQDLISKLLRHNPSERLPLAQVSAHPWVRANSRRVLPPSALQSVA
Experiment [2] concerns the target T2, Tyrosine-protein kinase JAK3 (Homo sapiens, UniProt P52333).
T2 sequence (P52333 whole entry): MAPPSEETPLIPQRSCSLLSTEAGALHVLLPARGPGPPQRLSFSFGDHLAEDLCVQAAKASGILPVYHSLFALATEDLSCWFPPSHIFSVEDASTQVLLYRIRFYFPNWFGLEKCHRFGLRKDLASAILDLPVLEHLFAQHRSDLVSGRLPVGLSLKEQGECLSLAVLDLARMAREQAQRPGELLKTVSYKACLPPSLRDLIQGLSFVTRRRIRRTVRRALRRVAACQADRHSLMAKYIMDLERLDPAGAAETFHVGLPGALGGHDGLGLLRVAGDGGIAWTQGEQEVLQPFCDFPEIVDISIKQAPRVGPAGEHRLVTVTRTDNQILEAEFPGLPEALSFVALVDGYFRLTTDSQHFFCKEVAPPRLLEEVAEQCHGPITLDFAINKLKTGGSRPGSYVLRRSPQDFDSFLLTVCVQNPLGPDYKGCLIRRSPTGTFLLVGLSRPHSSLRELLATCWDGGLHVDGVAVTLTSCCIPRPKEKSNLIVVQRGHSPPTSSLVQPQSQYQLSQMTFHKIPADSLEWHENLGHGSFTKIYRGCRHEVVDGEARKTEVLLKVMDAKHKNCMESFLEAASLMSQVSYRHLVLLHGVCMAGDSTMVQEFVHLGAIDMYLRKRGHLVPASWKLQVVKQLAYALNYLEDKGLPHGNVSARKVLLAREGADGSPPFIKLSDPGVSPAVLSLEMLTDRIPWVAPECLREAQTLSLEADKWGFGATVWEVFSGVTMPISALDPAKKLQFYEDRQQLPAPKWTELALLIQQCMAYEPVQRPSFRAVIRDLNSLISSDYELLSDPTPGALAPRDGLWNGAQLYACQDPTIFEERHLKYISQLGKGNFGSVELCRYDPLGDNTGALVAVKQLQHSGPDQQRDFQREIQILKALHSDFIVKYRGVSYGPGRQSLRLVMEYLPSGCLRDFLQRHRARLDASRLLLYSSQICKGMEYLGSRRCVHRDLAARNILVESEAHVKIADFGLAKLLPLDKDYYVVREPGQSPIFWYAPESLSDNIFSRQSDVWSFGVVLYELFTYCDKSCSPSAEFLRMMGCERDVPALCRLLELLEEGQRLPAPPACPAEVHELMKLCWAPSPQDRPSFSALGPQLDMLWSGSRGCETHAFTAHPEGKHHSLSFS
The experiment in a line: Enzyme Assay.
Experimental: JAK3: The 2×JAK3/Tyr 06 (ThermoFisher Scientific proprietary) mixture was prepared in 50 mM HEPES pH 7.5. 0.01% BRIJ-35, 10 mM MgCl2, 1 mM EGTA.

In experiment [3] the target is T3, Dual specificity protein kinase TTK (Homo sapiens, UniProt P33981).
T3 sequence (P33981 whole entry): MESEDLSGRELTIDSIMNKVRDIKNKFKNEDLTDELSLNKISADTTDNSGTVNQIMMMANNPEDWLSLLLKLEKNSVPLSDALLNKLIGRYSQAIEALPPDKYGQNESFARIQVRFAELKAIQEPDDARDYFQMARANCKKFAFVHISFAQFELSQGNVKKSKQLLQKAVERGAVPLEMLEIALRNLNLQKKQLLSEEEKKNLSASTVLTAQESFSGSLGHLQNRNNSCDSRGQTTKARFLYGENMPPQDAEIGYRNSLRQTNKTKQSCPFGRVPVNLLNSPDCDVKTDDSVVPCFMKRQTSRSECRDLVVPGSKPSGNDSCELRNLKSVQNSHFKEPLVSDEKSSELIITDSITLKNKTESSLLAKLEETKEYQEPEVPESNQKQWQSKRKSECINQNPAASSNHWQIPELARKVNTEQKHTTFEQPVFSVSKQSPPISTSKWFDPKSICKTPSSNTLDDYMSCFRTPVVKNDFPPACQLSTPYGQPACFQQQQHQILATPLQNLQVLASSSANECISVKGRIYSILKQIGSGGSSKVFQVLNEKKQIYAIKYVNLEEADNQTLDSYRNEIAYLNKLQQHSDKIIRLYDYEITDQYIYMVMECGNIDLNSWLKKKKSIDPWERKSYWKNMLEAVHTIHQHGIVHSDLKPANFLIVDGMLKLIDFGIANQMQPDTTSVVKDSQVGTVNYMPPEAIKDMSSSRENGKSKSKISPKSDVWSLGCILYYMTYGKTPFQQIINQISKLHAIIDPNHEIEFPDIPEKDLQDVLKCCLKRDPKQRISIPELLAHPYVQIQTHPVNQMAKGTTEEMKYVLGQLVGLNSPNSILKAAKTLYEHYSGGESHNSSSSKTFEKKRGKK
Kind of experiment: TTK Enzyme Assay. The protocol: The inhibitory activity of compounds against TTK was determined in a LanthaScreen Eu Kinase Binding assay run by ThermoFisher Scientific as part of their SelectScreen Biochemical Kinase Profiling Service. The LanthaScreen Eu Kinase Binding assay format uses binding of an Alexa Fluor conjugate or tracer to a kinase, which is detected by addition of a Eu-labeled anti-tag antibody. […] Plates were then read using a fluorescence plate reader.

Experiment [4] concerns the target Tyrosine-protein kinase JAK1 (Homo sapiens, UniProt P23458). Kind of experiment: Enzyme Assay.
Experimental: JAK1: The 2×JAK/Tyr 06 (ThermoFisher Scientific proprietary) mixture was prepared in 50 mM HEPES pH 6.5, 0.01% BRIJ-35, 10 mM MgCl2, 1 mM EGTA, 0.02% NaN3.

These results are taken from BindingDB's records for patent US11884671 (AstraZeneca, 2024).

A word on the pIC50: it is −log10 of the IC50, conventionally taken in molar units. A high value points to a small IC50.

Each structure is given as a SMILES string. pIC50: −log10 of the molar value. Where only a bound is given, the exact number is not on record here.

Chain of Tyrosine-protein kinase JAK1 (P23458 whole entry): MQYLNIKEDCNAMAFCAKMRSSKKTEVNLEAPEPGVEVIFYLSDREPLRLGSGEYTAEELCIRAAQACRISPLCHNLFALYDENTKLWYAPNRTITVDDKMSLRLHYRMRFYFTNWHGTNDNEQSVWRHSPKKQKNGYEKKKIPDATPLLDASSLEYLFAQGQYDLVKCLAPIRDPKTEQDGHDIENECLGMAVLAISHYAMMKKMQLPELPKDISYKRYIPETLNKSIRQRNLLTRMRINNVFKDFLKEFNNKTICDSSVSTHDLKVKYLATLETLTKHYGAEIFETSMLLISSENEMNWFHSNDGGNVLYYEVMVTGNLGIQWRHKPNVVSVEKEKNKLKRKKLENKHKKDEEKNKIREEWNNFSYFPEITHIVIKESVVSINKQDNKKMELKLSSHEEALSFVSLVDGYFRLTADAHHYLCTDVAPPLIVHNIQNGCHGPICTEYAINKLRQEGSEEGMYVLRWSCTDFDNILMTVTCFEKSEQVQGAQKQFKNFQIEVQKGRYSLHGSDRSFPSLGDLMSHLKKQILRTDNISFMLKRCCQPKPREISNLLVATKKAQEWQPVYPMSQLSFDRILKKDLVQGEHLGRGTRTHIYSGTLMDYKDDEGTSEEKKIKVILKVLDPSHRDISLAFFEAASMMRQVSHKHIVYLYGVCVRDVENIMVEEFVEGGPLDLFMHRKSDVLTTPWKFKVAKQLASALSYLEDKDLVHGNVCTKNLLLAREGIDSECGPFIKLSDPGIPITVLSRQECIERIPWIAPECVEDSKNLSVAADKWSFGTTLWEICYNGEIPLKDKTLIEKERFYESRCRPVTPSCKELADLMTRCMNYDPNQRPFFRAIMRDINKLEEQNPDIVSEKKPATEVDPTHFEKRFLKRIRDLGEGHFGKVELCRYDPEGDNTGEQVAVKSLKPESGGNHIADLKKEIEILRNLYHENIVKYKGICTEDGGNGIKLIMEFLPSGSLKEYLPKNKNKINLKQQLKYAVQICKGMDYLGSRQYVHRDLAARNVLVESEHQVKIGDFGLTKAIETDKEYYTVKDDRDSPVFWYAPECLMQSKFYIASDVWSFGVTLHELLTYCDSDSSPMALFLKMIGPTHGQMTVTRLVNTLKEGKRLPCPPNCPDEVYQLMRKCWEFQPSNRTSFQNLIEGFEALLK
Chain of Tyrosine-protein kinase JAK2 (O60674 whole entry): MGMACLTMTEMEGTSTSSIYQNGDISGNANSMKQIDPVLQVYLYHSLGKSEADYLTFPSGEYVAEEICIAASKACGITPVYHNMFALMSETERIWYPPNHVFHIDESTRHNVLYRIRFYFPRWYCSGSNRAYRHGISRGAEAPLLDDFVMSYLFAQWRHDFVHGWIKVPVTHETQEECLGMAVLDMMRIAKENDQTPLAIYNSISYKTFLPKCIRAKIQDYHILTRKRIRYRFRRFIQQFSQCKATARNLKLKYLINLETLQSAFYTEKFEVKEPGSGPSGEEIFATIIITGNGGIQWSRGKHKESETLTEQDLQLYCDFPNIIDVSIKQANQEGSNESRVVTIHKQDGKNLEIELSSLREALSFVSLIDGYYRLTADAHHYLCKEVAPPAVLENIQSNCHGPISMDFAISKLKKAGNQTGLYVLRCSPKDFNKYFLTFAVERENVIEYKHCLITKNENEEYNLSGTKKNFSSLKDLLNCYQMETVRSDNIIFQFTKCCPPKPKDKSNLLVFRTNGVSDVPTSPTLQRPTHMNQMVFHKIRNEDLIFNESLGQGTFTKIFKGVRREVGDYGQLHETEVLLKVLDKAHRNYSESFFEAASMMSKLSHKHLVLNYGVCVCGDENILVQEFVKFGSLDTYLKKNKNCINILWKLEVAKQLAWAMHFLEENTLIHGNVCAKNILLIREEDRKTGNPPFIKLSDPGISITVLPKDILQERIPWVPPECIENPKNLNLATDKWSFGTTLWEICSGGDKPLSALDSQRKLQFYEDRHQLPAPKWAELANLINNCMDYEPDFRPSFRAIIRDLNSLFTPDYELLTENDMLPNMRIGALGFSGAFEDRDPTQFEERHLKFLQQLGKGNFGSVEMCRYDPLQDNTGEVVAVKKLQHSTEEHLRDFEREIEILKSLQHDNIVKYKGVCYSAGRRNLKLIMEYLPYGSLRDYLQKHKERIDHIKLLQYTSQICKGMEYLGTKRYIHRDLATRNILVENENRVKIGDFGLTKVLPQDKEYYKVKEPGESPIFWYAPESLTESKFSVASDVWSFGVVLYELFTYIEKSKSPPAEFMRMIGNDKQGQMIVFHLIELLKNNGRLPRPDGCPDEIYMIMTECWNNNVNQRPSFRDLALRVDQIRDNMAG
Experimental for Aurora kinase B: Aurora B (AurB): The 2×AURKB (Aurora B)/Ser/Thr 01 (ThermoFisher Scientific proprietary) mixture was prepared in 50 mM HEPES pH 7.5, 0.01% BRIJ-35, 10 mM MgCl2, 1 mM EGTA.

As to `Cc1cc2ncccc2cc1Nc1ncc2c(n1)n([C@H]1CC[C@@](C)(O)CC1)c(=O)n2C` [US11884671, Example 14], the pIC50 at Aurora kinase A is less than 5.00; in experiment [1] it was less than 5.00; at Aurora kinase B it was less than 5.00; in experiment [2], less than 5.00; in experiment [3] it was 7.00; in experiment [4], less than 5.00.
On to `Cc1cc2ncccc2cc1Nc1ncc2c(n1)n([C@H]1CC[C@](C)(O)CC1)c(=O)n2C` [US11884671, Example 15], for which the negative-log IC50 (pIC50) against Aurora kinase A was less than 5.00; in experiment [1], less than 5.00; at Aurora kinase B, less than 5.00; in experiment [2], less than 5.00; in experiment [3], 6.60; in experiment [4] it was less than 5.00.
Consider `Cc1cc2nnccc2cc1Nc1ncc2c(n1)n([C@H]1CC[C@@](C)(O)CC1)c(=O)n2C` [US11884671, Example 16], for which the pIC50 was less than 5.00 on Aurora kinase A; less than 5.00 in experiment [1]; less than 5.00 at Aurora kinase B; less than 5.00 in experiment [2]; 6.70 in experiment [3]; less than 5.00 in experiment [4].
`Cc1cc2nnccc2cc1Nc1ncc2c(n1)n([C@H]1CC[C@](C)(O)CC1)c(=O)n2C` [US11884671, Example 17]: the negative logarithm of the IC50 (pIC50) is less than 5.00 against Aurora kinase A; less than 5.00 in experiment [1]; less than 5.00 on Aurora kinase B; less than 5.00 in experiment [2]; 6.50 in experiment [3]; less than 5.00 in experiment [4].
